Assay results published in patent publication US20170030926A1, “MARKER OF NEUROPATHIC GAUCHER'S DISEASE AND METHODS OF USE THEREOF” (Yeda Research and Development Co. Ltd., priority 2014, published 2017).

Columns and labels:
[1] = Therapeutic effect on the brain in Type 3 GD patients on long-term ERT and miglustat; type: in vivo, human; settings: long-term treatment
From the text: Spinal fluid samples were collected for biomarker discovery from patients with Type 3 GD and age-matched control subjects.

[2] = Body weight of mice induced for GD by daily CBE injections; type: in vivo, C57BL/6OlaHsd mice
Protocol: (§1) C57BL/6OlaHsd mice were used as another model of nGD, in which the disease is induced by intra-peritoneal (IP) injection with 100 mg/Kg/day conduritol b epoxide ([…], calbiochem), an irreversible GCase inhibitor.
(§2) Correlation of CSF levels of GPNMB and nGD symptoms was further verified using an additional mouse model of GD, where mice are induced for GD by injections of conduritol b epoxide (CBE), a GCase inhibitor. 100 mg/Kg/day of CBE were daily injected into mice starting on day 15 post-natal. On day 30 the mice were divided into three groups: “CBE D15-30” in which CBE injections were ceased on day 30, “CBE D15-30; PBS D31-41” in which CBE injections were ceased on day 30 and the mice continued to receive phosphate buffered saline (PBS) injections until day 41, and “CBE D15-41”, in which CBE injections were continued to day 41. An additional group of mice was injected with PBS during the entire experiment (“PBS”) and served as a control (FIG. 4A). Mice body weight, a simple indicator of disease progression, was measured daily during the experiment and the results are shown in FIG. 4B.

GPNMB = GPNMB levels in CSF and brain homogenates of CBE treated mice by ELISA; type: in vivo
Protocol: as §1
Mice were anesthetized (100mg/kg Ketamine and 10 mg/Kg xylazine) and CSF was aspired from the Cisterna magna using glass needles. Brain tissues were removed and lysed in ˜6 volumes of Ripa buffer (150 mM sodium chloride, 1.0% Triton X-100, 0.5% sodium deoxycholate, 0.1% SDS, 50 mM Tris, pH 8.0) supplemented with a protease inhibitor mixture (Sigma). Following homogenization, samples were centrifuged at 4500gav for 5 min at 4° C., and the supernatant was collected. Protein level was quantified using the BCA protein assay reagent (Pierce Chemical Co.) GPNMB was measured using the mouse GPNMB ELISA kit (R&D systems) According to manufacturer's protocol.
as §2
CSF was aspirated from the Cisterna magna of the mice and GPNMB levels were measured in both CSF (FIG. 4C) and brain homogenates (FIG. 4D) by ELISA. […] Remarkably, GPNMB levels rapidly declined during the recovery period. More specifically, GPNMB levels in the CSF and brain increased upon injection of CBE from day 15-30 and to a higher extent with injection until day 41.

[3] = compared with mice continuously treated with CBE until day 41

## CCCCN1C[C@H](O)[C@@H](O)[C@H](O)[C@H]1CO [miglustat]
[1]
  therapeutic effect on the brain: neither had any therapeutic effect on the brain

## O[C@H]1[C@H](O)[C@@H](O)[C@@H]2O[C@@H]2[C@@H]1O (racemic) [CBE, conduritol b epoxide]
[2]; 100 mg/Kg/day IP daily from day 15 post-natal, body weight as indicator of disease progression
  time until body weight began to decrease after beginning CBE injections: 10 to 12 days
[2]; CBE D15-30, PBS D31-41 group
  body weight course after CBE injections ceased: began to gain weight
[2]; CBE D15-41 group, 100 mg/Kg/day
  body weight course with continued CBE injections: continued to decrease until day 41
GPNMB; CBE treated mice vs PBS control, ELISA
  GPNMB level in CSF: marked elevation
GPNMB; CBE treated mice vs PBS control, brain homogenates, ELISA
  GPNMB level in brain: marked elevation
GPNMB; [3]
  GPNMB level in CSF on day 41 after cessation of CBE on day 30: significantly lower level
  GPNMB level in brain on day 41 after cessation of CBE on day 30: significantly lower level
